# According to patent US20250339569A1, “CARBONIC ANHYDRASE IX LIGANDS” (priority 2021, published 2025):
# Starred links: 1 amine or outer side, 2 acyl side, 3 side chain; linkers in the order of their positions; H or OH if unused. Positions of bridges follow the written chain, without caps; N, C: chain ends. Non-standard residues stand in square brackets, D forms with d. Residues, ends and D or L forms follow the SMILES beside them. *: point of attachment. NH(CH2)3NH(O2Oc(DOTA)) = O=C(O)CN1CCN(CC(=O)O)CCN(CC(=O)NCCOCCOCC(=O)NCCCN*)CCN(CC(=O)O)CC1; DOTA = O=C(O)CN1CCN(CC(=O)O)CCN(CC(=O)*)CCN(CC(=O)O)CC1; 1Nal = N[C@@H](Cc1cccc2ccccc12)C(=O)O; mXylylene = c1cc(C[*:1])cc(C[*:2])c1; Bta = N[C@@H](Cc1csc2ccccc12)C(=O)O; Trx = NC[C@H]1CC[C@H](C(=O)O)CC1; tBuAla = CC(C)(C)C[C@H](N)C(=O)O; Pen = CC(C)(S)[C@H](N)C(=O)O; 3Amb = NCc1cccc(C(=O)O)c1; 4Amb = NCc1ccc(C(=O)O)cc1; AEEA = NCCOCCOCC(=O)O; Aib = CC(C)(N)C(=O)O; Sar = CNCC(=O)O
# Molecular target: T1, CAIX-expressing human HT-29 colorectal cancer cells (Homo sapiens, UniProt Q16790)
# T1 construct: CAIX-expressing human HT-29 colorectal cancer cells; host or cells: HT-29 human colorectal cancer cells
# Test: FACS binding assay (IC50 determination, competition with tracer 3BP-2776 or 3BP-4149)
# Settings: FACS competition on HT-29 cells, Tracer ID 3BP-2776 (10 nM, biotin-labeled), 4° C., 1 hour; read-out: pIC50 category (activity) (converted)
# Method: In order to determine binding of compounds according to the present invention to CAIX-expressing cells, a FACS binding assay was established.
# CAIX-expressing human HT-29 colorectal cancer cells (DSMZ, RRID: CVCL_0320) were cultured in McCoys's 5A modified medium (Biochrom, #F1015) including 10% fetal calf serum (FCS), 2 mM L-glutamine, 100 U/ml penicillin and 100 μg/mL streptomycin. Cells were detached with Accutase (Biolegend, #423201) and washed in FACS buffer (PBS including 1% FCS). Cells were diluted in FACS buffer to a final concentration of 500.000 cells per ml. 200 μL of the cell suspension were transferred to a u-shaped non-binding 96-well plate (Greiner) and cells were washed in ice-cold FACS buffer.
# When biotinylated compounds were used an additional incubation step with 1 μg/mL APC-Streptavidin (Miltenyi; #130-106-791) in 50 μL FACS buffer for 30 minutes on ice was performed.
# Cells were washed twice with ice-cold FACS buffer and analyzed in an Attune NxT flow cytometer (Thermo Fisher). Median fluorescence intensities (MFI) of the APC/Cy5-channel were calculated by Attune NxT software. MFI values were plotted against peptide concentration and four parameter logistic (4PL) curve fitting and EC50/pEC50 or IC50/pIC50 calculations were performed using ActivityBase software.
row,SMILES,IC50 [µM]
1,CC(=O)N[C@H](C(=O)N[C@@H](Cc1ccc(O)cc1)C(=O)N[C@H]1CSCc2cccc(c2)CSC[C@@H](C(N)=O)NC(=O)[C@H](CCC(N)=O)NC(=O)[C@H](Cc2c[nH]c3ccccc23)NC(=O)[C@H]([C@@H](C)O)NC(=O)[C@H](CC(C)C)NC(=O)[C@H](Cc2cccc3ccccc23)NC(=O)[C@H](CC(=O)O)NC(=O)CN(C)C(=O)[C@H](CCC(=O)O)NC1=O)C(C)C [3BP-3314] (Ac-VYCE[Sar]D[1Nal]LTWQC-NH2; linker 3-12 via mXylylene),< 0.01
2,CC(=O)N[C@H](C(=O)N[C@@H](Cc1ccc(O)cc1)C(=O)N[C@H]1CSCc2cccc(c2)CSC[C@@H](C(N)=O)NC(=O)[C@H](CCC(N)=O)NC(=O)[C@H](Cc2csc3ccccc23)NC(=O)[C@H]([C@@H](C)O)NC(=O)[C@H](CC(C)C)NC(=O)[C@H](Cc2c[nH]c3ccccc23)NC(=O)[C@H](CC(=O)O)NC(=O)CN(C)C(=O)[C@H](CCC(=O)O)NC1=O)C(C)C [3BP-3315] (Ac-VYCE[Sar]DWLT[Bta]QC-NH2; linker 3-12 via mXylylene),0.1 to 0.794
3,CC(=O)N[C@H]1CSCc2cccc(c2)CSC[C@@H](C(N)=O)NC(=O)[C@H](CCC(N)=O)NC(=O)[C@H](Cc2c[nH]c3ccccc23)NC(=O)[C@H]([C@@H](C)O)NC(=O)[C@H](CC(C)C)NC(=O)[C@H](Cc2c[nH]c3ccccc23)NC(=O)[C@H](CC(=O)O)NC(=O)CN(C)C(=O)[C@H](CCC(=O)O)NC1=O [3BP-3325] (Ac-CE[Sar]DWLTWQC-NH2; linker 1-10 via mXylylene),0.1 to 0.794
4,CC(C)C[C@@H]1NC(=O)[C@H](Cc2c[nH]c3ccccc23)NC(=O)[C@H](CC(=O)O)NC(=O)[C@H]2CCCN2C(=O)[C@H](CCC(=O)O)NC(=O)[C@@H](NC(=O)[C@H](Cc2ccc(O)cc2)NC(=O)[C@@H](NC(=O)c2cccc(CNC(=O)CN3CCN(CC(=O)O)CCN(CC(=O)O)CCN(CC(=O)O)CC3)c2)C(C)C)CSCc2cccc(c2)CSC[C@@H](C(N)=O)NC(=O)[C@H](C)NC(=O)[C@H](Cc2c[nH]c3ccccc23)NC(=O)[C@H]([C@@H](C)O)NC1=O [3BP-3429] ({DOTA-3Amb}-VYCE[dP]DWLTWAC-NH2; linker 3-12 via mXylylene),< 0.01
5,CC(C)C[C@@H]1NC(=O)[C@H](Cc2c[nH]c3ccccc23)NC(=O)[C@H](CC(=O)O)NC(=O)[C@H]2CCCN2C(=O)[C@H](CCC(=O)O)NC(=O)[C@@H](NC(=O)[C@H](Cc2ccc(O)cc2)NC(=O)[C@@H](NC(=O)[C@H]2CC[C@H](CNC(=O)CN3CCN(CC(=O)O)CCN(CC(=O)O)CCN(CC(=O)O)CC3)CC2)C(C)C)CSCc2cccc(c2)CSC[C@@H](C(N)=O)NC(=O)[C@H](C)NC(=O)[C@H](Cc2c[nH]c3ccccc23)NC(=O)[C@H]([C@@H](C)O)NC1=O [3BP-3430] ({DOTA-Trx}-VYCE[dP]DWLTWAC-NH2; linker 3-12 via mXylylene),< 0.01
6,CC(C)[C@H](NC(=O)[C@H]1CC[C@H](CNC(=O)CN2CCN(CC(=O)O)CCN(CC(=O)O)CCN(CC(=O)O)CC2)CC1)C(=O)N[C@@H](Cc1ccc(O)cc1)C(=O)N[C@H]1CSCc2cccc(c2)CSC[C@@H](C(N)=O)NC(=O)[C@H](C)NC(=O)[C@H](Cc2c[nH]c3ccccc23)NC(=O)[C@H]([C@@H](C)O)NC(=O)[C@H](CC(C)(C)C)NC(=O)[C@H](Cc2c[nH]c3ccccc23)NC(=O)[C@H](CC(=O)O)NC(=O)[C@H]2CCCN2C(=O)[C@H](CCC(=O)O)NC1=O [3BP-3431] ({DOTA-Trx}-VYCE[dP]DW[tBuAla]TWAC-NH2; linker 3-12 via mXylylene),< 0.01
7,"CC(=O)N[C@H](C(=O)N[C@@H](Cc1ccc(O)cc1)C(=O)N[C@H]1CSCc2cccc(c2)CSC[C@@H](C(=O)NCCOCCOCC(=O)N[C@@H](CCCCNC(=O)CN2CCN(CC(=O)O)CCN(CC(=O)O)CCN(CC(=O)O)CC2)C(N)=O)NC(=O)[C@H](C)NC(=O)[C@H](Cc2c[nH]c3ccccc23)NC(=O)[C@H]([C@@H](C)O)NC(=O)[C@H](CC(C)C)NC(=O)[C@H](Cc2c[nH]c3ccccc23)NC(=O)[C@H](CC(=O)O)NC(=O)[C@H]2CCCN2C(=O)[C@H](CCC(=O)O)NC1=O)C(C)C [3BP-3474, Ac-Val-Tyr-[Cys(3MeBn)-Glu-pro-Asp-Trp-Leu-Thr-Trp-Ala-Cys]-O2Oc-Lys(DOTA)-NH2] (Ac-VYCE[dP]DWLTWAC[AEEA]K(DOTA)-NH2; linker 3-12 via mXylylene)",< 0.01
8,CC(=O)N[C@H](C(=O)N[C@@H](Cc1ccc(O)cc1)C(=O)N[C@H]1CSCc2cccc(c2)CSC[C@@H](C(=O)NCc2ccc(C(=O)N[C@@H](CCCCNC(=O)CN3CCN(CC(=O)O)CCN(CC(=O)O)CCN(CC(=O)O)CC3)C(N)=O)cc2)NC(=O)[C@H](C)NC(=O)[C@H](Cc2c[nH]c3ccccc23)NC(=O)[C@H]([C@@H](C)O)NC(=O)[C@H](CC(C)C)NC(=O)[C@H](Cc2c[nH]c3ccccc23)NC(=O)[C@H](CC(=O)O)NC(=O)[C@H]2CCCN2C(=O)[C@H](CCC(=O)O)NC1=O)C(C)C [3BP-3477] (Ac-VYCE[dP]DWLTWAC[4Amb]K(DOTA)-NH2; linker 3-12 via mXylylene),< 0.01
9,CC(=O)N[C@H](C(=O)N[C@@H](Cc1ccc(O)cc1)C(=O)N[C@H]1CSCc2cccc(c2)CSC[C@@H](C(N)=O)NC(=O)[C@H](CCC(=O)NCCCNC(=O)COCCOCCNC(=O)CN2CCN(CC(=O)O)CCN(CC(=O)O)CCN(CC(=O)O)CC2)NC(=O)[C@H](Cc2c[nH]c3ccccc23)NC(=O)[C@H]([C@@H](C)O)NC(=O)[C@H](CC(C)C)NC(=O)[C@H](Cc2c[nH]c3ccccc23)NC(=O)[C@H](CC(=O)O)NC(=O)[C@H]2CCCN2C(=O)[C@H](CCC(=O)O)NC1=O)C(C)C [3BP-3479] (Ac-VYCE[dP]DWLTWE(NH(CH2)3NH(O2Oc(DOTA)))C-NH2; linker 3-12 via mXylylene),< 0.01
10,CC(=O)N[C@H](C(=O)N[C@@H](Cc1ccc(O)cc1)C(=O)N[C@H]1CSCc2cccc(c2)CSC[C@@H](C(N)=O)NC(=O)[C@H](C)NC(=O)[C@H](Cc2c[nH]c3ccccc23)NC(=O)[C@H]([C@@H](C)O)NC(=O)[C@H](CC(C)(C)C)NC(=O)[C@H](Cc2c[nH]c3ccccc23)NC(=O)[C@H](CC(=O)O)NC(=O)[C@H]2CCCN2C(=O)[C@H](CCC(=O)O)NC1=O)C(C)C [3BP-3490] (Ac-VYCE[dP]DW[tBuAla]TWAC-NH2; linker 3-12 via mXylylene),< 0.01
11,CC(=O)N[C@H](C(=O)N[C@@H](Cc1ccc(O)cc1)C(=O)N[C@H]1CSCc2cccc(c2)CSC(C)(C)[C@@H](C(N)=O)NC(=O)[C@H](C)NC(=O)[C@H](Cc2c[nH]c3ccccc23)NC(=O)[C@H]([C@@H](C)O)NC(=O)[C@H](CC(C)C)NC(=O)[C@H](Cc2c[nH]c3ccccc23)NC(=O)[C@H](CC(=O)O)NC(=O)[C@H]2CCCN2C(=O)[C@H](CCC(=O)O)NC1=O)C(C)C [3BP-3492] (Ac-VYCE[dP]DWLTWA[Pen]-NH2; linker 3-12 via mXylylene),< 0.01
12,CC(=O)N[C@H](C(=O)N[C@@H](Cc1ccc(O)cc1)C(=O)N[C@H]1CSCc2cccc(c2)CSC(C)(C)[C@@H](C(N)=O)NC(=O)[C@H](C)NC(=O)[C@H](Cc2c[nH]c3ccccc23)NC(=O)[C@H]([C@@H](C)O)NC(=O)[C@H](CC(C)(C)C)NC(=O)[C@H](Cc2c[nH]c3ccccc23)NC(=O)[C@H](CC(=O)O)NC(=O)[C@H]2CCCN2C(=O)[C@H](CCC(=O)O)NC1=O)C(C)C [3BP-3493] (Ac-VYCE[dP]DW[tBuAla]TWA[Pen]-NH2; linker 3-12 via mXylylene),< 0.01
13,CC(=O)N[C@H](C(=O)N[C@@H](Cc1ccc(O)cc1)C(=O)N[C@H]1CSCc2cccc(c2)CSC(C)(C)[C@@H](C(N)=O)NC(=O)[C@H](C)NC(=O)[C@H](Cc2c[nH]c3ccccc23)NC(=O)[C@H]([C@@H](C)O)NC(=O)[C@H](CC(C)(C)C)NC(=O)[C@H](Cc2c[nH]c3ccccc23)NC(=O)[C@H](CC(=O)O)NC(=O)CN(C)C(=O)[C@H](CCC(=O)O)NC1=O)C(C)C [3BP-3501] (Ac-VYCE[Sar]DW[tBuAla]TWA[Pen]-NH2; linker 3-12 via mXylylene),< 0.01
14,CC(=O)N[C@H](C(=O)N[C@@H](Cc1ccc(O)cc1)C(=O)N[C@H]1CSCc2cccc(c2)CSC[C@@H](C(N)=O)NC(=O)[C@H](C)NC(=O)[C@H](Cc2c[nH]c3ccccc23)NC(=O)[C@H]([C@@H](C)O)NC(=O)C(C)(C)NC(=O)[C@H](Cc2c[nH]c3ccccc23)NC(=O)[C@H](CC(=O)O)NC(=O)[C@H]2CCCN2C(=O)[C@H](CCC(=O)O)NC1=O)C(C)C [3BP-3502] (Ac-VYCE[dP]DW[Aib]TWAC-NH2; linker 3-12 via mXylylene),0.01 to 0.0794
15,CC(=O)N[C@@H](CO)C(=O)N[C@@H](Cc1ccc(O)cc1)C(=O)N[C@H]1CSCc2cccc(c2)CSC[C@@H](C(N)=O)NC(=O)[C@H](CO)NC(=O)[C@H](Cc2c[nH]c3ccccc23)NC(=O)[C@H]([C@@H](C)O)NC(=O)[C@H](CC(C)C)NC(=O)[C@H](Cc2c[nH]c3ccccc23)NC(=O)[C@H](CC(=O)O)NC(=O)[C@H]2CCCN2C(=O)[C@H](CCC(=O)O)NC1=O [3BP-3566] (Ac-SYCE[dP]DWLTWSC-NH2; linker 3-12 via mXylylene),< 0.01
16,CC(=O)N[C@H](C(=O)N[C@@H](Cc1ccc(O)cc1)C(=O)N[C@H]1CSCc2cccc(c2)CSC[C@@H](C(N)=O)NC(=O)[C@H](CO)NC(=O)[C@H](Cc2c[nH]c3ccccc23)NC(=O)[C@H]([C@@H](C)O)NC(=O)[C@H](CC(C)C)NC(=O)[C@H](Cc2c[nH]c3ccccc23)NC(=O)[C@H](CC(=O)O)NC(=O)[C@H]2CCCN2C(=O)[C@H](CCC(=O)O)NC1=O)[C@@H](C)O [3BP-3567] (Ac-TYCE[dP]DWLTWSC-NH2; linker 3-12 via mXylylene),< 0.01
